How the values were obtained:
[1] = system: Pythium ultimum; test: Pythium ultimum / liquid culture (seedling damping off); assay type: cell-based; settings: Globisporangium ultimum, liquid culture in PDB, 24 °C, 2-3 days after application, read-out: control of Pythium ultimum (inhibition of growth, photometric) compared to untreated control
Experimental: Pythium ultimum/Liquid Culture (Seedling Damping Off):
Mycelia fragments and oospores of a newly grown liquid culture of the fungus are directly mixed into nutrient broth (PDB potato dextrose broth). After placing a (DMSO) solution of test compound into a microtiter plate (96-well format), the nutrient broth containing the fungal mycelia/spore mixture is added. The test plates are incubated at 24° C. and the inhibition of growth is determined photometrically 2-3 days after application.

[2] = system: Phytophthora infestans; test: whole plant or invertebrate; assay type: in vivo; settings: in Solanum lycopersicum, foliar, read-out: control of Phytophthora infestans compared to untreated control

CNC(=O)Nc1ccc(-c2cnc3ccc(C(=O)N(C)c4ccc(F)c(OC)c4)cn23)cc1 [Compound 80, N-(4-fluoro-3-methoxy-phenyl)-N-methyl-3-[4-(methylcarbamoyl-amino)phenyl]imidazo[1,2-a]pyridine-6-carboxamide]
inhibition at 20 ppm [1]: ≥ 80% | pest or weed control at 200 ppm [2]: ≥ 80%

CNC(=O)Nc1ccc(-c2cnc3ccc(C(=O)N(C)c4ccc(F)c(OC)c4)cn23)cn1 [Compound 81, N-(4-fluoro-3-methoxy-phenyl)-N-methyl-3-[6-(methylcarbamoyl-amino)-3-pyridyl]imidazo[1,2-a]pyridine-6-carboxamide]
inhibition at 20 ppm [1]: ≥ 80% | pest or weed control at 200 ppm [2]: ≥ 80%

COC(=O)Nc1ccc(-c2cnc3c(C4CC4)cc(C(=O)N(C)c4ccc(F)cc4)cn23)cn1 [Compound 83, methyl N-[5-[8-cyclopropyl-6-[(4-fluorophenyl)-methyl-carbamoyl]imidazo[1,2-a]pyridin-3-yl]-2-pyridyl]carbamate]
inhibition at 20 ppm [1]: ≥ 80% | pest or weed control at 200 ppm [2]: ≥ 80%

COC(=O)Nc1ccc(-c2cnc3ccc(C(=O)N(CS(C)(=O)=O)c4ccc(F)c(OC)c4)cn23)cn1 [Compound 92, methyl N-[5-[6-[(4-fluoro-3-methoxy-phenyl)-(methylsulfonylmethyl)carbamoyl]imidazo[1,2-a]pyridin-3-yl]-2-pyridyl] carbamate]
inhibition at 20 ppm [1]: ≥ 80% | pest or weed control at 200 ppm [2]: ≥ 80%

CNC(=O)CN(C(=O)c1ccc2ncc(-c3ccc(NC(=O)OC)nc3)n2c1)c1ccc(F)c(OC)c1 [Compound 97, methyl N-[5-[6-[(4-fluoro-3-methoxy-phenyl)-[2-(methylamino)-2-oxo-ethyl]carbamoyl]imidazo[1,2-a]pyridin-3-yl]-2-pyridyl]carbamate]
inhibition at 20 ppm [1]: ≥ 80% | pest or weed control at 200 ppm [2]: ≥ 80%

CONC(=O)Nc1ccc(-c2cnc3ccc(C(=O)N(C)c4ccc(F)c(OC)c4)cn23)cn1 [Compound 99]
inhibition at 20 ppm [1]: ≥ 80% | pest or weed control at 200 ppm [2]: ≥ 80%

COC(=O)Nc1ccc(-c2cnc3ccc(C(=O)N(c4ccc(F)cc4)C4CCC4)cn23)cn1 [Compound 109, methyl N-[5-[6-[cyclobutyl-(4-fluorophenyl)carbamoyl]imidazo [1,2-a]pyridin-3-yl]-2-pyridyl]carbamate]
inhibition at 20 ppm [1]: ≥ 80% | pest or weed control at 200 ppm [2]: ≥ 80%

CNC(=O)c1cccc(N(C)C(=O)c2ccc3ncc(-c4ccc(NC(=O)OC)nc4)n3c2)c1 [Compound 115, methyl N-[5-[6-[methyl-[3-(methylcarbamoyl)phenyl]carbamoyl]imidazo[1,2-a]pyridin-3-yl]-2-pyridyl]carbamate]
inhibition at 20 ppm [1]: ≥ 80% | pest or weed control at 200 ppm [2]: ≥ 80%

CCOCCN(C(=O)c1ccc2ncc(-c3ccc(NC(=O)OC)nc3)n2c1)c1ccc(Cl)cc1 [Compound 123, methyl N-[5-[6-[(4-chlorophenyl)-(2-ethoxyethyl)carbamoyl]imidazo[1,2-a]pyridin-3-yl]-2-pyridyl]carbamate]
inhibition at 20 ppm [1]: ≥ 80% | pest or weed control at 200 ppm [2]: ≥ 80%

COC(=O)Nc1ccc(-c2cnc3ccc(C(=O)N(CCC#N)c4ccc(Cl)cc4)cn23)cn1 [Compound 128, methyl N-[5-[6-[(4-chlorophenyl)-(2-cyanoethyl)carbamoyl]imidazo[1,2-a]pyridin-3-yl]-2-pyridyl]carbamate]
inhibition at 20 ppm [1]: ≥ 80% | pest or weed control at 200 ppm [2]: ≥ 80%

CCN(C(=O)c1ccc2ncc(-c3ccc(NC(=O)OC)nc3)n2c1)c1ccc(Cl)cc1 [Compound 129, methyl N-[5-[6-[(4-chlorophenyl)-ethyl-carbamoyl]imidazo[1,2-a]pyridin-3-yl]-2-pyridyl]carbamate]
inhibition at 20 ppm [1]: ≥ 80% | pest or weed control at 200 ppm [2]: ≥ 80%

COC(=O)Nc1ccc(-c2cnc3ccc(C(=O)N(CCC#N)c4cccc(C)c4)cn23)cn1 [Compound 130, methyl N-[5-[6-[2-cyanoethyl(m-tolyl)carbamoyl]imidazo [1,2-a]pyridin-3-yl]-2-pyridyl]carbamate]
inhibition at 20 ppm [1]: ≥ 80% | pest or weed control at 200 ppm [2]: ≥ 80%

— patent publication US20240425500A1 (priority 2021, published 2024)
